In PubChem BioAssay AID179 (DTP/NCI, 2004) one finds EC50, IC50 and outcome data, which are given here for 68 molecules.

For the assay, the system named is CEM cells HIV-1 protection, formazan growth assay. In words: NCI AIDS Antiviral Assay. The following applies: for IC50: measured here: growth of uninfected CEM cells. The gist of the method:
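Human CEM cells, uninfected and HIV-1-infected, exposed to five drug concentrations; growth measured by soluble formazan assay and scored as percent protection from infection, with protecting compounds retested.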

Active and inactive are the calls of the source.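 How the source made its calls: active means compounds giving half or more protection of infected cells from virus-caused growth loss, again on retest; inactive means the rest.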 Where a SMILES comes first, the peptide text is derived from it. The star is where a group is joined. Cbz = O=C(OCc1ccccc1)*

What is called EC50 is the concentration needed to bring the measured effect to its halfway point. A word on the IC50: it is the concentration that gives 50% inhibition. Read a low IC50 as inhibition by little substance. For the molecule `CCOC(=O)/C(=C\c1ccc(N(C)C)cc1)P(=O)(OCC)OCC`, the EC50 is greater than 513 µM and the IC50 was 55 µM.

On to `CSSCc1ccccc1`, for which the EC50 was greater than 200 µM and the IC50 turned out to be 19.1 µM.

`COc1ccccc1Nc1nc(N)nc(N)c1N`: the EC50 is greater than 200 µM and the IC50 is 36.3 µM.

As for `O=[N+]([O-])OC1CCCC(O[N+](=O)[O-])c2c1n([O-])c1ccccc1[n+]2=O` (stereo not given), the EC50 was greater than 51.3 µM and the IC50 stood at 1.41 µM. Take `Clc1ccc(SCCCCCCCCCCSc2ccc(Cl)cc2)cc1`: the EC50 is greater than 23.4 µM and the IC50 is greater than 23.4 µM.

As for `O=C(CS(=O)(=O)c1ccccc1)c1ccccc1`, the EC50 is greater than 347 µM and the half-maximal inhibitory concentration (IC50) was 251 µM. The like results for `Cc1ccc2c(c1)CC1(C2)Cc2ccc(C)cc2C1=O` (stereo not given) were, in that order, greater than 200 µM and 23.4 µM. For `O=C1Nc2c(ccc(Cl)c2I)C1=O`, in that order: greater than 162 µM and 30.9 µM.

As for `[N-]=[N+]=Nc1ccccc1C(=O)N1C(=O)c2ccccc2C(=O)N(C(=O)c2ccccc2N=[N+]=[N-])c2ccccc21`, the EC50 was greater than 200 µM and the IC50 was 72.4 µM. As to `O=C(/C=C/c1ccc2c(c1)OCO2)c1cc(Cl)cc(Cl)c1O`, the outcome was inactive. Take `O=C(NCP(=O)(Oc1ccccc1)Oc1ccccc1)OCc1ccccc1`: the EC50 is greater than 200 µM and the IC50 came to 162 µM. As for `C(=Nc1ccc(SSc2ccc(N=C=C(c3ccccc3)c3ccccc3)cc2)cc1)=C(c1ccccc1)c1ccccc1`, the EC50 was greater than 200 µM and the IC50 was greater than 200 µM.

Consider `[N-]=[N+]=NC1(c2ccccc2)C(=O)C(Cl)=C(c2ccccc2)N(c2ccccc2)C1=O` (stereo not given), for which the EC50 is greater than 200 µM and the IC50 was found to be 126 µM. The like results for `Clc1ccc2c(c1)N(CCCN1CCCC13CCCCC3)c1ccccc1S2` were, in that order, greater than 200 µM and 102 µM. The like results for `O=c1[nH]c2ccc(CC(=S)N3CCN(c4ccccc4)CC3)cc2o1` were, in that order, greater than 200 µM and greater than 200 µM. For the molecule `CC(=O)OC1CCn2nnc(COC(=O)NC(C)C)c21` (stereo not given), the outcome was inactive. Turning to `CC1=NN(C(=O)c2ccc(Cl)cc2)C(=O)/C1=C/c1ccc(O)cc1`, the EC50 was greater than 15.1 µM and the IC50 is greater than 15.1 µM. With `CC(C)[C@@H]1CC[C@@H](C)C[C@H]1OC(=O)c1c2n(c3ccccc13)C[C@H]1OC(C)(C)O[C@@H]21`, the EC50 is greater than 100 µM and the IC50 turned out to be 77.6 µM. The like results for `O=S(=O)(/C=C/c1ccc(F)cc1)Cc1ccc(CS(=O)(=O)/C=C/c2ccc(F)cc2)cc1` were, in that order, greater than 27.5 µM and greater than 27.5 µM.

Regarding `COc1ccc(N2C(=O)C(=O)C3(CCCCC3)C2=O)c2ccccc12`, the EC50 was greater than 200 µM and the IC50 is greater than 200 µM.

Take `Cc1cn(Cc2ccccc2CCO)c(=O)[nH]c1=O`: the EC50 was 191 µM and the IC50 amounted to 479 µM.

`Cn1c(=O)c(-c2ccccc2)c(O)c2ccccc21`: the EC50 was greater than 200 µM and the 50% inhibitory concentration (IC50) was greater than 200 µM. For the molecule `Cc1ccc(N2C(=O)/C(=C/c3ccc(N(CCC#N)CCC#N)cc3C)N=C2c2cc([N+](=O)[O-])ccc2Cl)cc1`, the result was inactive.

With `CC(=O)[CH-]C(C)=O.CC(=O)[CH-]C(C)=O.CCCNCCN.[Cr+5].[O-][Cl+3]([O-])([O-])[O-]`, the EC50 is greater than 200 µM and the IC50 is greater than 200 µM.

As to `COc1ccc(CNc2nc3ccc(C(F)(F)F)cc3nc2-c2ccccc2)cc1OC`, the EC50 was greater than 12 µM and the IC50 is greater than 12 µM. Consider `CN1C(=O)/C(=N\n2c(-c3ccccc3)nc3ccccc3c2=O)c2cc(Br)ccc21`, for which the EC50 is greater than 200 µM and the IC50 was greater than 200 µM.

For `O=c1[nH]c(=O)n(C2CC(O)C(CO)O2)cc1C#Cc1c(F)c(F)c(F)c(F)c1F` (stereo not given), the EC50 is greater than 603 µM and the IC50 amounted to 110 µM. The like results for `O=S(=O)(c1ccc(Cl)cc1)S(=O)(=O)c1ccc(Cl)cc1` were, in that order, 10.7 µM and 26.9 µM.

As to `COc1ccc(NC(=S)N/N=C\c2ccc(NC(C)=O)cc2)cc1`, the result was inactive. For `O=C1/C(=C/c2ccc(O)cc2)Oc2ccccc21`, the EC50 was greater than 200 µM and the IC50 is 151 µM.

Consider `O=C(O)CN(c1ccc(F)cc1)S(=O)(=O)c1ccccc1`, for which the outcome was inactive.

Regarding `CC(N)C(=O)NCC(=O)NC(CO)C(=O)NC(CCC(N)=O)C(=O)NC(CCC(=O)O)C(=O)N1CCCC1C(=O)NC(CCCCN)C(=O)NC(CCC(=O)O)C(=O)NC(CCC(N)=O)C(=O)NC(CO)C(=O)NC(CO)C(=O)NC(Cc1ccc(O)cc1)C(=O)NC(CO)C(=O)NC(Cc1cnc[nH]1)C(=O)NC(CO)C(=O)O` (stereo not given) (H-AGSQEPKEQSSYSHS-OH; configuration not given here), the EC50 is greater than 100 µM and the IC50 is greater than 100 µM.

`Cc1ccc(C2=C(C#N)C(=O)N3CCN=C3S2)cc1`: the EC50 is greater than 200 µM and the IC50 was greater than 100 µM. For `O[C@H]1[C@H]2c3cc4c(cc3CN3CCC(=C[C@@H]1O)[C@H]23)OCO4`, in that order: greater than 2 µM and 0.372 µM.

With `Sc1ccccc1N=Cc1ccc(C=Nc2ccccc2S)cc1`, the EC50 was greater than 200 µM and the IC50 was greater than 200 µM. Consider `CC(C)c1ccccc1SCc1cc(=O)cc(CSc2ccccc2C(C)C)o1`, for which the EC50 was greater than 200 µM and the IC50 was found to be 11.7 µM. For `CC12CCC(O)CC1=CCC1C2CCC2(C)C1CC1=CC(C#N)C(=O)NC12O` (stereo not given), in that order: greater than 49 µM and 28.8 µM. As for `COC(=O)C(NC(=O)C(C)NC(=O)OC(C)(C)C)C(C)O` (stereo not given), the result was inactive. With `O=c1[nH]c(=O)n(C2CC(O)C(CO)O2)cc1NN=NCc1ccccc1` (stereo not given), the EC50 is greater than 200 µM and the IC50 is greater than 200 µM. On to `O=C(O)CCN(CCC(=O)O)CCN(CCC(=O)O)CCC(=O)O`, for which the EC50 is greater than 589 µM and the IC50 is greater than 589 µM.

`CCOC(=O)C(=O)Nc1cc(Cl)ccc1Cl`: the EC50 is greater than 363 µM and the IC50 was greater than 363 µM. As to `Cc1cc(C)c(S(=O)(=O)N(CCCCCN)OCCCN)c(C)c1`, the EC50 is greater than 200 µM and the IC50 turned out to be 30.2 µM. The like results for `COc1ccc(C2CC(=O)CC(c3ccc(OC)cc3)C23C(=O)NC(=S)NC3=O)cc1` (stereo not given) were, in that order, greater than 100 µM and greater than 100 µM. For `CC(=O)OC1O[C@@H](C(C)(C)O)CC[C@@H]1[C@H]1CC[C@@]2(C)C3=C(CC[C@]12C)[C@@]1(C)C[C@@H](OC(=O)CC(C)(O)CC(=O)O)[C@H](OC(C)=O)C(C)(C)C1CC3` (stereo not given in full), in that order: greater than 200 µM and 105 µM. For the molecule `C1CCC(OCc2nnn3c2CCC3)OC1` (stereo not given), the outcome was inactive. Regarding `C=CCNC(=O)C(O)C(O)C(=O)NCC=C` (stereo not given), the EC50 was greater than 1100 µM and the IC50 is greater than 1100 µM.

Take `O=C(NNC(=S)NC1CC(c2ccccc2)Oc2ccccc21)c1ccccc1` (stereo not given): the result was inactive.

Turning to `COc1ccc(/C(Cl)=C(\C=N/O)c2ccc(OC)c(OC)c2)cc1OC`, the EC50 was greater than 13.8 µM and the IC50 was greater than 13.8 µM. As to `CCOC(=O)C1=C(C)Nc2ccccc2S1`, the outcome was inactive. On to `Cc1cc2c(Br)cc(Br)c(O)c2nc1C(=O)c1ccccc1`, for which the EC50 is greater than 4.79 µM and the IC50 is greater than 4.79 µM. On to `CCNC(=O)OCc1cnc(C)c(OC(=O)NCC)c1COC(=O)NCC`, for which the EC50 was greater than 200 µM and the concentration for half-maximal inhibition (IC50) was determined as 31.6 µM. For `Clc1cc2ncn(C3CCCCO3)c2cc1Cl` (stereo not given), in that order: greater than 200 µM and 45.7 µM. The like results for `CNC1C(O)CC(OC2C/C=C(\C)C/C(C)=C/C=C/CCC(C)CNC(=O)/C=C/C=C/C2C)OC1C` (stereo not given) were, in that order, greater than 37.2 µM and 1.95 µM.

On to `CCOC(=O)/C(Cc1cc(=O)n(C)c2ccccc12)=N\Nc1ccccc1`, for which the EC50 was greater than 200 µM and the IC50 was greater than 200 µM. In the case of `CC(C)CC(=O)CC(C)[C@]1(CCCOCc2ccccc2)C(=O)N2CCC3(C[C@@]24CCC[C@H]41)OCCO3` (stereo not given in full), the EC50 is greater than 200 µM and the IC50 came out at 35.5 µM. For the molecule `CCOC(=O)CCC(NC(=O)OCc1ccccc1)C(=O)NC(CC(=O)OC)C(=O)NC(CC(=O)OC)C(=O)NC(CCC(=O)OCC)C(=O)OCC` (stereo not given) (Cbz-E(OEt)D(OMe)D(OMe)E(OEt)-OEt; configuration not given here), the EC50 is greater than 50.1 µM and the IC50 was greater than 50.1 µM. `O=[N+]([O-])c1cc(SSc2ccc(Cl)c([N+](=O)[O-])c2)ccc1Cl`: the EC50 was greater than 60.3 µM and the IC50 worked out at 13.2 µM. In the case of `Nc1ccc(C(=O)NN2C(=O)C(Cl)C2c2ccc(O)cc2)cc1` (stereo not given), the EC50 was greater than 200 µM and the IC50 is 9.12 µM. On to `CN(C)c1ccc(/C=C(/NC(=O)c2ccccc2)c2nc3ccc(Cl)cc3[nH]2)cc1`, for which the EC50 is greater than 17.4 µM and the IC50 is greater than 17.4 µM. As for `CC[C@H]1CN2CCc3cc(OC)c(OC)cc3[C@@H]2C[C@@H]1C[C@H]1NCCc2cc(OC)c(OC)cc21`, the result was inactive. With `[N-]=[N+]=Nc1c(Cc2ccccc2)c(Cl)nc2ccccc12`, the EC50 was greater than 200 µM and the IC50 was determined as 19.1 µM. The like results for `COC(=O)C1=C(N)C2=C(N)Oc3ccccc3C2CC1=C(C#N)C#N` (stereo not given) were, in that order, greater than 200 µM and 47.9 µM. For `O=C1OCOC2(CCCC2)C1c1ccccc1` (stereo not given), in that order: greater than 200 µM and 120 µM. For `O=C(COc1ccccc1Cl)N1N=C(c2ccc(Cl)cc2)CC1(O)c1ccccc1` (stereo not given), in that order: greater than 4.57 µM and greater than 4.57 µM. Take `S=c1sc2c(s1)SCCS2`: the EC50 was greater than 200 µM and the IC50 worked out at 155 µM. The like results for `COC(=O)N[C@H](C(=O)O)C(C)O[Si](C)(C)C(C)(C)C` (stereo not given in full) were, in that order, greater than 851 µM and greater than 851 µM. As for `O=C(N/C(=C\c1cccc([N+](=O)[O-])c1)c1nc2[nH]c(=S)[nH]c(=O)c2[nH]1)c1ccccc1`, the result was inactive. Take `CN(C)c1ccc(/C=C(\C#N)c2ccc(Br)cc2Br)cc1`: the EC50 is greater than 200 µM and the IC50 was 3.39 µM.
